Data published in patent US20240059703A1 (AMGEN INC., priority 2021, published 2024).

Each compound was assayed against KRAS G12C (Homo sapiens (Human), UniProt P01116, C118A/G12C) (assay: 2 h coupled exchange assay). Details: Avg 2 h Coupled exchange IC50, 2 h compound pre-incubation.
Assay type: biochemical
Protocol: The term “2 h coupled exchange assay” or “20 h coupled exchange assay” as used herein refers to the assay described in the Section entitled “BIOLOGICAL EVALUATION.”

KRAS G12C, sequence (P01116 other isoform, or with tags, fused parts or gaps G12C/C118A): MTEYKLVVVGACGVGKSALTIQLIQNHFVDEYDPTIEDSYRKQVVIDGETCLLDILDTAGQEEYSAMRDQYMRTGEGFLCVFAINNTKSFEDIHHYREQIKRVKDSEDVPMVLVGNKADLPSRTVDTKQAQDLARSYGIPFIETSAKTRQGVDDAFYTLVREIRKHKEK

IC50 [µM]	Structure (SMILES)
3.04	C=CC(=O)N1CC2(CCN(c3nc4c(c(-c5cc(O)ccc5C)c3C)COC(C)(C)C4)C2)C1 (single isomer, unassigned) [Example 14-32, (P)-1-(6-(4-(5-hydroxy-2-methylphenyl)-3,7,7-trimethyl-7,8-dihydro-5H-pyrano[4,3-b]pyridin-2-yl)-2,6-diazaspiro[3.4]octan-2-yl)-2-propen-1-one]
0.023	C=CC(=O)N1CC2(CCN(c3nc4c(c(-c5c(C)c(Cl)cc6cnn(C)c56)c3F)COC(C)(C)C4)C2)C1 (single isomer, unassigned) [Example 14-78, (M)-1-(6-(4-(5-chloro-1,6-dimethyl-1H-indazol-7-yl)-3-fluoro-7,7-dimethyl-7,8-dihydro-5H-pyrano[4,3-b]pyridin-2-yl)-2,6-diazaspiro[3.4]octan-2-yl)-2-propen-1-one]
0.519	C=CC(=O)N1CC2(CCN(c3nc4cc(-c5ccnn5C)ccc4c(-c4ccc(F)cc4)c3C)C2)C1 [Example 16-3, 1-(6-(4-(4-fluorophenyl)-3-methyl-7-(1-methyl-1H-pyrazol-5-yl)-2-quinolinyl)-2,6-diazaspiro[3.4]octan-2-yl)-2-propen-1-one]
0.28	C=CC(=O)N1CC2(CCN(c3nc4cc(-n5ccnc5C)ccc4c(-c4ccccc4Cl)c3C)C2)C1 [Example 15-4, 1-(6-(4-(2-chlorophenyl)-3-methyl-7-(2-methyl-1H-imidazol-1-yl)-2-quinolinyl)-2,6-diazaspiro[3.4]octan-2-yl)-2-propen-1-one]

Same assay, conditions: Avg 2 h Coupled exchange IC50, 2 h compound pre-incubation, SOS-mediated nucleotide exchange

Structure (SMILES)	IC50 [µM]
C=CC(=O)N1CC2(CCN(c3nc4c(c(-c5c(C)ccc6cnn(C)c56)c3C#N)CC(C)(C)C4)C2)C1 (single isomer, unassigned) [Example 13-17, (M)-4-(1,6-dimethyl-1H-indazol-7-yl)-6,6-dimethyl-2-(2-(2-propenoyl)-2,6-diazaspiro[3.4]octan-6-yl)-6,7-dihydro-5H-cyclopenta[b]pyridine-3-carbonitrile]	19.9
C=CC(=O)N1CC2(CCN(c3nc4cc(F)ccc4c(-c4c(C)ccc5[nH]ncc45)c3C)[C@H]2C)C1 (single isomer, unassigned) [Example 2-60]	4.67
C=CC(=O)N1CC2(CCN(c3nc4c(c(-c5cc(O)ccc5C)c3C#N)COC(C)(C)C4)C2)C1 (single isomer, unassigned) [Example 13-127, 4-(5-hydroxy-2-methylphenyl)-7,7-dimethyl-2-(2-(2-propenoyl)-2,6-diazaspiro[3.4]octan-6-yl)-7,8-dihydro-5H-pyrano[4,3-b]pyridine-3-carbonitrile]	153
C=CC(=O)N1CC2(CCN(c3nc4c(c(-c5c(C)c(C)cc6cnn(C)c56)c3C#N)COC(C)(C)C4)C2)C1 (single isomer, unassigned) [Example 13-91, (M)-7,7-dimethyl-2-(2-(2-propenoyl)-2,6-diazaspiro[3.4]octan-6-yl)-4-(1,5,6-trimethyl-1H-indazol-7-yl)-7,8-dihydro-5H-pyrano[4,3-b]pyridine-3-carbonitrile]	9.27
C=CC(=O)N1CC2(CCN(c3nc4c(c(-c5c(C)ccc6cnn(C)c56)c3Cl)COC(C)(C)C4)C2)C1 [Example 2-86, 1-(6-(3-chloro-4-(1,6-dimethyl-1H-indazol-7-yl)-7,7-dimethyl-7,8-dihydro-5H-pyrano[4,3-b]pyridin-2-yl)-2,6-diazaspiro[3.4]octan-2-yl)-2-propen-1-one]	6.15
C=CC(=O)N1CC2(CCN(c3nc4c(c(-c5cc(O)cc6ccccc56)c3C#N)C[C@H]3C[C@@H]4C3(C)C)C2)C1 (single isomer, unassigned) [Example 13-130]	13.1
C=CC(=O)N1CC2(CCN(c3nc4c(c(-c5c(C)ccc6cnn(C)c56)c3C#N)CO[C@@H](C3CC3)C4)C2)C1 (single isomer, unassigned) [Example 13-119]	6.7
C=CC(=O)N1CC2(CCN(c3nc4c(c(-c5c(C)ccc6[nH]ncc56)c3C#N)[C@H]3CC[C@@H]4C3)C2)C1 (single isomer, unassigned) [Example 14-8]	2.57

Continued, values first:

IC50 [µM]	Structure (SMILES)
1.38	C=CC(=O)N1CC2(CCN(c3nc4c(c(-c5c(C)ccc6[nH]ncc56)c3C#N)C[C@H]3C[C@@H]4C3(C)C)C2)C1 (single isomer, unassigned) [Example 13-114]
0.119	C=CC(=O)N1CC2(CCN(c3nc4c(c(-c5c(C)ccc6cn[nH]c56)c3C)CCC(C)(C)C4)C2)C1 (single isomer, unassigned) [Example 2-24, (P)-1-(6-(3,7,7-trimethyl-4-(6-methyl-1H-indazol-7-yl)-5,6,7,8-tetrahydro-2-quinolinyl)-2,6-diazaspiro[3.4]octan-2-yl)-2-propen-1-one]
0.735	C=CC(=O)N1CC2(CCN(c3nc4c(c(-c5c(C)ccc6cn[nH]c56)c3C)CCC(C)(C)C4)C2)C1 [Example 2-23, 1-(6-(3,7,7-trimethyl-4-(6-methyl-1H-indazol-7-yl)-5,6,7,8-tetrahydro-2-quinolinyl)-2,6-diazaspiro[3.4]octan-2-yl)-2-propen-1-one]
0.113	C=CC(=O)N1CC2(CCN(c3nc4c(c(-c5cc(O)cc6ccncc56)c3C#N)C[C@H]3C[C@@H]4C3(C)C)C2)C1 [Example 2-41, (1R,9R)-6-(6-hydroxy-8-isoquinolinyl)-10,10-dimethyl-4-(2-(2-propenoyl)-2,6-diazaspiro[3.4]octan-6-yl)-3-azatricyclo[7.1.1.0^2,7]undeca-2,4,6-triene-5-carbonitrile]
0.877	C=CC(=O)N1CC2(CCN(c3nc4c(c(-c5c(C)ccc6cnn(C)c56)c3C#N)COC4(C)C)C2)C1 [Example 13-55, 4-(1,6-dimethyl-1H-indazol-7-yl)-7,7-dimethyl-2-(2-(2-propenoyl)-2,6-diazaspiro[3.4]octan-6-yl)-5,7-dihydrofuro[3,4-b]pyridine-3-carbonitrile]
0.769	C=CC(=O)N1CC2(CCN(c3nc4c(c(-c5ccccc5Cl)c3C#N)CC(C)(C)C4)C2)C1 [Example 13-23, 4-(2-chlorophenyl)-6,6-dimethyl-2-(2-(2-propenoyl)-2,6-diazaspiro[3.4]octan-6-yl)-6,7-dihydro-5H-cyclopenta[b]pyridine-3-carbonitirle]
0.143	CN(C)C/C=C/C(=O)N1CC2(CCN(c3nc4c(c(-c5cc(O)cc6ccccc56)c3C#N)CC[C@H]3C[C@@H]43)C2)C1 (single isomer, unassigned) [Example 13-88]
0.337	C=CC(=O)N1CC2(CCN(c3nc4c(c(-c5ccccc5Cl)c3C#N)CC(C)(C)C4)C2)C1 (single isomer, unassigned) [Example 13-25, (P)-4-(2-chlorophenyl)-6,6-dimethyl-2-(2-(2-propenoyl)-2,6-diazaspiro[3.4]octan-6-yl)-6,7-dihydro-5H-cyclopenta[b]pyridine-3-carbonitrile]
0.399	C=CC(=O)N1CC2(CCN(c3nc4c(c(-c5cc(Cl)cc6ccn(C)c56)c3C#N)COC(C)(C)C4)C2)C1 [Example 12-8, 4-(5-chloro-1-methyl-1H-indol-7-yl)-7,7-dimethyl-2-(2-(2-propenoyl)-2,6-diazaspiro[3.4]octan-6-yl)-7,8-dihydro-5H-pyrano[4,3-b]pyridine-3-carbonitrile]
1.08	C=CC(=O)N1CC2(CCN(c3nc4c(c(-c5c(O)cccc5Cl)c3C#N)C[C@H]3C[C@@H]4C3)C2)C1 [Example 13-64, (1S,9S)-6-(2-chloro-6-hydroxyphenyl)-4-(2-(2-propenoyl)-2,6-diazaspiro[3.4]octan-6-yl)-3-azatricyclo[7.1.1.0^2,7]undeca-2,4,6-triene-5-carbonitrile]
